{"source": "patent US20050124699A1", "about": "“Drugs for treating or preventing disorders of corneal and/or conjunctival epithelial cells” (WAKAMOTO PHARMACEUTICAL CO., LTD., priority 2002, published 2005)", "key": {"[1]": {"tested_on": "Chang's human conjunctival epithelial cell strain (CCL-20.2)", "format": "cell-based", "procedure": "(§1) Cells Used: The corneal cell used herein was SV40 immortalized human corneal epithelial cell strain (HCEC) (Araki-Sasaki et al., IOVS, 1995, 36:614-621) and the conjunctival cell used herein was Chang's human conjunctival epithelial cell strain (CCL-20.2) (ATC CCCL-20.2).\n(§2) Experiments: The cells were cultivated to a density of 5×10^4 cells/mL in a growth medium containing 10% serum, inoculated in a 96-well multiplate in an amount of 100 μL/well and cultivated at 37° C. overnight. After the cultivation thereof to a confluent of 30 to 50%, the culture medium was dissolved in a fresh culture medium, followed by the addition of stepwise diluted MS and further diclofenac sodium and the subsequent cultivation at 37° C. for 24 hours. After the cultivation, each well was washed, followed by the addition of a fresh culture medium (100 μL/well) and WST-8 (10 μL/well; Cell Counting Kit-8 available from DOJIN Chemical Co., Ltd.), subsequent cultivation for 1.5 hour and the determination of the absorbance at 450-660 nm to thus calculate the viable cell count.\n(§3) Method for Evaluating Toxicity: A test group free of any candidate compound was used as a negative control, the absorbance thereof was assumed to be 100% and a dose-correlation curve was prepared, which was expressed as the cell survival rates as a function of the concentration of each test substance."}, "[2]": {"tested_on": "SV40 immortalized human corneal epithelial cell strain (HCEC)", "procedure": "as §1, §2, §3"}, "corneal epithelial cells [3]": {"tested_on": "corneal epithelial cells", "details": "cited from earlier work; for effect on healing of the damaged area of the epithelium: addition to the monolayer culture"}, "corneal epithelial cells [4]": {"tested_on": "corneal epithelial cells", "details": "cited from earlier work"}, "corneal epithelial cells [5]": {"tested_on": "corneal epithelial cells", "details": "cultivation of the epithelial cells; cited from earlier work"}, "[6]": {"tested_on": "epithelial cells of lenses", "details": "cited from earlier work"}, "[7]": {"details": "MS 0.01 μM + diclofenac sodium 0.25 mM"}, "[8]": {"details": "MS 0.01 μM + diclofenac sodium 0.5 mM"}, "[9]": {"details": "MS 0.01 μM, diclofenac sodium 0 mM"}, "[10]": {"details": "MS 0.1 μM + diclofenac sodium 0.25 mM"}, "[11]": {"details": "MS 0.1 μM + diclofenac sodium 0.5 mM"}, "[12]": {"details": "MS 0.1 μM, diclofenac sodium 0 mM"}, "[13]": {"details": "MS 1 μM + diclofenac sodium 0.25 mM"}, "[14]": {"details": "MS 1 μM + diclofenac sodium 0.5 mM"}, "[15]": {"details": "MS 1 μM, diclofenac sodium 0 mM"}, "[16]": {"details": "MS 10 μM + diclofenac sodium 0.25 mM"}, "[17]": {"details": "MS 10 μM + diclofenac sodium 0.5 mM"}, "[18]": {"details": "MS 10 μM, diclofenac sodium 0 mM"}, "[19]": {"details": "MS 100 μM + diclofenac sodium 0.25 mM"}, "[20]": {"details": "MS 100 μM + diclofenac sodium 0.5 mM"}, "[21]": {"details": "MS 100 μM, diclofenac sodium 0 mM"}, "[22]": {"details": "added together with diclofenac sodium"}, "[23]": {"details": "diclofenac sodium 0.25 mM, MS 0 μM, 24 hours"}, "[24]": {"details": "diclofenac sodium 0.5 mM, MS 0 μM, 24 hours"}}, "note": "Like-named read-outs stand apart in the source and are kept apart here."}
{"compound": "CCCCC(C)(O)C/C=C/[C@H]1[C@H](O)CC(=O)[C@@H]1CCCCCCC(=O)OC", "note": "(mixture of isomers) [Misoprostol]", "values": [{"measurement": "cell survival rate (% of negative control)", "setting": "[1]; MS 0.01 μM + diclofenac sodium 0.125 mM", "result": "91.1 ± 8.1", "unit": "%"}, {"measurement": "cell survival rate (% of negative control)", "setting": "[1]; [7]", "result": "42.6 ± 4.9", "unit": "%"}, {"measurement": "cell survival rate (% of negative control)", "setting": "[1]; [8]", "result": "33.1 ± 7.4", "unit": "%"}, {"measurement": "cell survival rate (% of negative control)", "setting": "[1]; [9]", "result": "93.0 ± 14.8", "unit": "%"}, {"measurement": "cell survival rate (% of negative control)", "setting": "[1]; MS 0.1 μM + diclofenac sodium 0.125 mM", "result": "97.1 ± 4.5", "unit": "%"}, {"measurement": "cell survival rate (% of negative control)", "setting": "[1]; [10]", "result": "45.0 ± 6.7", "unit": "%"}, {"measurement": "cell survival rate (% of negative control)", "setting": "[1]; [11]", "result": "34.2 ± 9.3", "unit": "%"}, {"measurement": "cell survival rate (% of negative control)", "setting": "[1]; [12]", "result": "98.6 ± 20.2", "unit": "%"}, {"measurement": "cell survival rate (% of negative control)", "setting": "[1]; MS 1 μM + diclofenac sodium 0.125 mM", "result": "96.4 ± 8.4", "unit": "%"}, {"measurement": "cell survival rate (% of negative control)", "setting": "[1]; [13]", "result": "44.0 ± 6.4", "unit": "%"}, {"measurement": "cell survival rate (% of negative control)", "setting": "[1]; [14]", "result": "34.4 ± 12.2", "unit": "%"}, {"measurement": "cell survival rate (% of negative control)", "setting": "[1]; [15]", "result": "104.0 ± 26.6", "unit": "%"}, {"measurement": "cell survival rate (% of negative control)", "setting": "[1]; MS 10 μM + diclofenac sodium 0.125 mM", "result": "97.8 ± 9.6", "unit": "%"}, {"measurement": "cell survival rate (% of negative control)", "setting": "[1]; [16]", "result": "46.4 ± 7.3", "unit": "%"}, {"measurement": "cell survival rate (% of negative control)", "setting": "[1]; [17]", "result": "33.7 ± 9.4", "unit": "%"}, {"measurement": "cell survival rate (% of negative control)", "setting": "[1]; [18]", "result": "99.5 ± 22.2", "unit": "%"}, {"measurement": "cell survival rate (% of negative control)", "setting": "[1]; MS 100 μM + diclofenac sodium 0.125 mM", "result": "55.4 ± 14.7", "unit": "%"}, {"measurement": "cell survival rate (% of negative control)", "setting": "[1]; [19]", "result": "31.5 ± 7.4", "unit": "%"}, {"measurement": "cell survival rate (% of negative control)", "setting": "[1]; [20]", "result": "28.7 ± 6.4", "unit": "%"}, {"measurement": "cell survival rate (% of negative control)", "setting": "[1]; [21]", "result": "86.3 ± 12.0", "unit": "%"}, {"measurement": "concentration at which MS per se had a cytotoxic effect", "setting": "[1]; human, 24 h", "result": 100, "unit": "µM"}, {"measurement": "cell survival rate (% of negative control)", "setting": "[2]; [7]", "result": "69.9 ± 8.3", "unit": "%"}, {"measurement": "cell survival rate (% of negative control)", "setting": "[2]; [8]", "result": "59.2 ± 10.4", "unit": "%"}, {"measurement": "cell survival rate (% of negative control)", "setting": "[2]; MS 0.01 μM + diclofenac sodium 1 mM", "result": "21.1 ± 9.9", "unit": "%"}, {"measurement": "cell survival rate (% of negative control)", "setting": "[2]; [9]", "result": "87.2 ± 13.2", "unit": "%"}, {"measurement": "cell survival rate (% of negative control)", "setting": "[2]; [10]", "result": "72.5 ± 12.6", "unit": "%"}, {"measurement": "cell survival rate (% of negative control)", "setting": "[2]; [11]", "result": "61.6 ± 13.6", "unit": "%"}, {"measurement": "cell survival rate (% of negative control)", "setting": "[2]; MS 0.1 μM + diclofenac sodium 1 mM", "result": "22.2 ± 8.3", "unit": "%"}, {"measurement": "cell survival rate (% of negative control)", "setting": "[2]; [12]", "result": "98.9 ± 20.4", "unit": "%"}, {"measurement": "cell survival rate (% of negative control)", "setting": "[2]; [13]", "result": "73.1 ± 11.7", "unit": "%"}, {"measurement": "cell survival rate (% of negative control)", "setting": "[2]; [14]", "result": "68.8 ± 17.1", "unit": "%"}, {"measurement": "cell survival rate (% of negative control)", "setting": "[2]; MS 1 μM + diclofenac sodium 1 mM", "result": "22.4 ± 8.0", "unit": "%"}, {"measurement": "cell survival rate (% of negative control)", "setting": "[2]; [15]", "result": "99.1 ± 22.3", "unit": "%"}, {"measurement": "cell survival rate (% of negative control)", "setting": "[2]; [16]", "result": "69.6 ± 10.5", "unit": "%"}, {"measurement": "cell survival rate (% of negative control)", "setting": "[2]; [17]", "result": "68.4 ± 13.4", "unit": "%"}, {"measurement": "cell survival rate (% of negative control)", "setting": "[2]; MS 10 μM + diclofenac sodium 1 mM", "result": "22.6 ± 9.5", "unit": "%"}, {"measurement": "cell survival rate (% of negative control)", "setting": "[2]; [18]", "result": "102.4 ± 24.5", "unit": "%"}, {"measurement": "cell survival rate (% of negative control)", "setting": "[2]; [19]", "result": "31.7 ± 8.8", "unit": "%"}, {"measurement": "cell survival rate (% of negative control)", "setting": "[2]; [20]", "result": "7.2 ± 4.5", "unit": "%"}, {"measurement": "cell survival rate (% of negative control)", "setting": "[2]; MS 100 μM + diclofenac sodium 1 mM", "result": "−1.3 ± 1.3", "unit": "%"}, {"measurement": "cell survival rate (% of negative control)", "setting": "[2]; [21]", "result": "99.2 ± 30.7", "unit": "%"}]}
{"compound": "CCCCC(C)(C)[C@H](O)/C=C/[C@H]1[C@H](O)CC(=O)[C@@H]1C/C=C\\CCCC(=O)O", "note": "[16,16-dimethyl prostaglandin E2]", "values": [{"measurement": "effect on healing of the damaged epithelium", "setting": "corneal epithelial cells [3]; added alone", "result": "does not show any effect on the healing of the damaged corneal epithelium"}, {"measurement": "effect on healing of the damaged epithelium", "setting": "corneal epithelial cells [3]; [22]", "result": "does not show any effect on the healing of the damaged corneal epithelium"}]}
{"compound": "O=C(O)Cc1ccccc1Nc1c(Cl)cccc1Cl", "note": "[Diclofenac Sodium, diclofenac sodium]", "values": [{"measurement": "effect on healing of the damaged area of the epithelium", "setting": "corneal epithelial cells [3]", "result": "would inhibit the damaged epithelium-healing"}, {"measurement": "cell survival rate (% of negative control)", "setting": "[1]; diclofenac sodium 0.125 mM, MS 0 μM, 24 hours", "result": "74.0 ± 10.0", "unit": "%"}, {"measurement": "cell survival rate (% of negative control)", "setting": "[1]; [23]", "result": "37.8 ± 5.7", "unit": "%"}, {"measurement": "cell survival rate (% of negative control)", "setting": "[1]; [24]", "result": "29.3 ± 5.6", "unit": "%"}, {"measurement": "effect on epithelium extension promoted by EGF", "setting": "corneal epithelial cells [4]; added simultaneously with EGF", "result": "inhibit the epithelium extension-promoting effect due to the EGF"}, {"measurement": "effect on extension of the corneal epithelial cells", "setting": "corneal epithelial cells [4]; agent alone", "result": "does not affect the extension of the corneal epithelial cells"}, {"measurement": "effect on growth of the corneal epithelial cells", "setting": "[2]; 0.25 mM, 0.5 mM or 1 mM, dose-dependent", "result": "inhibits the growth of the corneal epithelial cells"}, {"measurement": "cell survival rate (% of negative control)", "setting": "[2]; [23]", "result": "56.9 ± 8.7", "unit": "%"}, {"measurement": "cell survival rate (% of negative control)", "setting": "[2]; [24]", "result": "48.2 ± 6.7", "unit": "%"}, {"measurement": "cell survival rate (% of negative control)", "setting": "[2]; diclofenac sodium 1 mM, MS 0 μM, 24 hours", "result": "17.3 ± 5.4", "unit": "%"}, {"measurement": "effect on proliferation of the epithelium", "setting": "corneal epithelial cells [5]", "result": "do not affect the proliferation of the epithelium"}, {"measurement": "effect on proliferation of lens epithelial cells", "setting": "[6]; 25, 50 and 100 μM added to the culture medium", "result": "control of the proliferation of the epithelial cells"}]}
{"compound": "CCCCC[C@H](O)/C=C/[C@H]1[C@H](O)CC(=O)[C@@H]1C/C=C\\CCCC(=O)O", "note": "[PGE2, prostaglandin E2]", "values": [{"measurement": "effect on growth of lens epithelial cells", "setting": "[6]; 1, 10, 50 and 100 μM added to the culture medium", "result": "permits the growth of the epithelial cells"}]}
{"compound": "CC(C)OC(=O)CCC/C=C\\C[C@@H]1[C@@H](CC[C@@H](O)CCc2ccccc2)[C@H](O)C[C@@H]1O", "note": "[latanoprost]", "values": [{"measurement": "effect on healing of the damaged epithelium", "setting": "corneal epithelial cells [3]; added alone", "result": "any such effect cannot be obtained"}, {"measurement": "effect on healing of the damaged epithelium", "setting": "corneal epithelial cells [3]; [22]", "result": "can recover the healing of the damaged epithelium"}]}
{"compound": "EGF: epithelium growth factor (EGF)", "values": [{"measurement": "effect on healing of the damaged area of the epithelium", "setting": "corneal epithelial cells [3]", "result": "would promote the healing of the wound on the damaged area"}]}
